“Also recorded” adds a separate entry of the source. Where two headings read alike, the source gives them in different places. Starred links: 1 amine or outer side, 2 acyl side, 3 side chain; linkers in the order of their positions; H or OH if unused. Positions of bridges follow the written chain, without caps; N, C: chain ends. Non-standard residues stand in square brackets, D forms with d. Residues, ends and D or L forms follow the SMILES beside them. Chains are numbered I, II in the order given. Actinocin(9to1) = Cc1c2oc3c(C)ccc(C(=O)[*:1])c3nc-2c(C(=O)[*:2])c(N)c1=O; NMeV = CN[C@H](C(=O)O)C(C)C; Nle = CCCC[C@H](N)C(=O)O; Sar = CNCC(=O)O
How the values were obtained:
[1] = tested on: ERCC1; conditions: A2780-CP70; cited from earlier work
[2] = tested on: OPN promoter; assay: OPN promoter luciferase reporter assay in metastatic melanoma cell lines; type: cell-based, human; conditions: MCC012A and MCC012F cell lines; tomatidine
From the text: Empty pGL3 vector was used as control. […] Readings were normalized to total protein content. Each parameter was studied in triplicate and the experiment repeated at least 3 times. The data are represented as percent luciferase activity, which was derived as a percent of the relative light units in treated groups compared with the untreated groups.

[3] = tested on: ERCC1, XPD, XRCC1; assay: ERCC1, XPD and XRCC1 mRNA levels in A2780-CP70 cells (semi-quantitative PCR); type: cell-based, human; conditions: cells treated with cisplatin
[4] = tested on: c-jun; assay: c-jun and c-fos protein expression and c-jun phosphorylation in A2780-CP70 cells (Western blot); type: cell-based, human; conditions: IC50 dose of cisplatin
Experimental: c-jun protein expression was assessed in cisplatin-treated A2780-CP70 cells using Western blot analysis.
Protein expression of c-fos and phosphorylation of c-jun in cyclopamine-treated A2780-CP70 cells was assessed using Western blot analysis. Protein levels for c-jun, c-fos, phosphorylated c-jun (Ser 63), phosphorylated c-jun (Ser 73), and phosphorylated c-jun (Thr 91, Thr 93) were tested in cytosolic, nuclear, and whole cell fractions at 0 hr, 6 hr, 24 hr, 48 hr, and 72 hr. Internal controls for cytosolic and nuclear fractions included α-tubulin and histone deacetylase 3.
Phosphorylation of c-jun in A2780-CP70 cells transfected with anti-GLI1 shRNA construct was assessed using Western blot analysis. Protein levels for c-jun, phosphorylated c-jun (Ser 63), phosphorylated c-jun (Ser 73), and phosphorylated c-jun (Thr 91, Thr 93) were examined at 0 hr, 6 hr, 24 hr, 48 hr, and 72 hr.

[5] = tested on: A2780-CP70 cells; assay: Cisplatin sensitivity of A2780-CP70 cells (percent cell growth); conditions: read-out: IC50 of cisplatin
Experimental: Controls included α-tubulin and histone deactylase.
Transfected cells were treated with 0 μM, 2 μM, 5 μM, 10 μM, 30 μM, and 50 μM cisplatin at 24 hr post-transfection.

[6] = tested on: ERCC1, XPD, XRCC1; conditions: cited from earlier work; for ERCC1, XPD, or XRCC1 regulation: previous experiments, agents at IC50 doses
[7] = tested on: A2780-CP70 cells; conditions: A2780-CP70, cisplatin-resistant; cited from earlier work
[8] = tested on: c-jun; conditions: cited from earlier work
[9] = tested on: MDA-MB-435 (435) and SUM1315 (1315) cells; assay: Drug sensitivity of cells transfected with shRNA to GLI1 (MTS assay); type: cell-based, human; conditions: cells transfected with shRNA to GLI1 vs empty vector; 24 hours
Experimental: MDA-MB-435 (435) and SUM1315 (1315) cells were transfected with either empty vector (vec) or with vector encoding shRNA to GLI1 (shGLI1). Cells were treated with the indicated concentrations of drugs for 24 hours and viability was assessed using an MTS assay (FIG. 62A-FIG. 62C). […] Using real-time quantitative RT-PCR the GLI1 shRNA brings about a decrease of about 50% in the expression of ABCB1 (MDR1) and 90% decrease in ABCG2 (BCRP).

[10] = tested on: RAW264.7 cells; assay: Osteoclast differentiation (TRAP assay); type: cell-based, murine; conditions: DM supplemented with OPN (100 ng/ml) or SHH (100 nM) vs DM
Experimental: Cell lines—Human metastatic breast cancer cells, MDA-MB-231, were cultured in Dulbecco's Modified Eagle's Medium (DMEM/F12; Invitrogen, Carlsbad, Calif.), supplemented with 2 mM L-glutamine, 1 mM sodium pyruvate, 0.02 mM non-essential amino acids, 5% fetal bovine serum, FBS (Atlanta Biologicals, Norcross, Ga.), without antibiotics or antimycotics (cDME/F12). SUM1315 and SUM159 cells (DiMeo, T. A., et al. (2009) Cancer Res 69, 5364-5373) (Asterand, Detroit, Mich.) were cultured in DMEM/F12 supplemented with […], 5% FBS (Atlanta Biologicals) and either 10 ng/ml EGF or 1 ng/ml hydrocortisone, without antibiotics or antimycotics. The SUM1315 cells are derived from a metastasis in a patient with infiltrating ductal carcinoma; SUM159 cells were derived from a primary breast tumor with metaplastic carcinoma. RAW264.7 (ATCC, TIB 71) cells, a murine pre-osteoclastic line capable of differentiation and […] in culture (in presence of RANKL and MCSF), were grown in DMEM with L-glutamine (ATCC, 30-2002) supplemented with 10% FBS. A 2× differentiation medium (DM) was formulated for the RAW 264.7 cells comprising RAW264.7 growth medium supplemented with 20% FBS, RANKL (100 ng/ml) and M-CSF (40 ng/ml) (Matsubara, T., et al. J Bone Miner Res 25, 1068-1076). Conditioned media was harvested from breast cancer cells and mixed in a 1:1 ratio with double strength differentiation medium to assess the effect on osteoclast differentiation. 1×DM was used as control or wherever SHH (R & D Systems, Minneapolis, Minn.) or OPN (R & D Systems) was used alone. The medium on the RAW264.7 cells was replenished every 48 hours. In order to assess the effect of secreted Hh ligands, the neutralizing 5E1 antibody was used (Developmental Studies Hybridoma Bank, at the University of Iowa, Iowa). […] Medium was supplemented with 5E1 (2.5 μg/ml) and was changed on alternate days until the end of the experiment. The effect of OPN on osteoclast activity was assessed by transfecting an OPN shRNA-expressing construct on day 6 post-induction of differentiation. Fresh DM was added the following day and cells were allowed to grow for another 12 hours before termination of experiment. GLI1 expression was silenced in the SUM1315 cells using shRNA targeting GLI1 into pSuperior. gfp+neo (Oligoengine, WA, USA). Silencing of OPN expression was done using OPN-targeting shRNA cloned into pSuper (Oligoengine)
Osteoclast differentiation and activity assays—Tartarate-resistant acid phosphatase (TRAP) assay was conducted for RAW 264.7 following the manufacturer's protocol (Sigma, St. Louis, Mo.). This assay was indicative of the extent of differentiation. […] The percentage of area resorbed was calculated using the NIS-Elements BR. […]

[11] = tested on: RAW264.7 cells; assay: Osteoclast resorption activity (OAAS plates); type: cell-based, murine; conditions: DM with OPN (100 ng/ml) or SHH (100 nM)
Experimental: Osteoclast differentiation and activity assays—Tartarate-resistant acid phosphatase (TRAP) assay was conducted for RAW 264.7 following the manufacturer's protocol (Sigma, St. Louis, Mo.). This assay was indicative of the extent of differentiation. OAAS plates (Osteogenic Core Technologies, Choongnam, Republic of Korea) were utilized to measure osteoclastic activity. RAW 264.7 cells (25×103) were inoculated in 48-well plates. Cells were treated with serum-free conditioned media from breast cancer cells or 100 nM SHH or 100 ng/ml OPN on the following day. Media was changed every two days and the experiments were terminated either on day 6 (day 7 for knockdown experiments, with transfections being done on the sixth day). At the completion, cells were detached with 5% sodium hypochlorite and the wells were observed under a Nikon Eclipse TS 100 microscope at 10× magnification. […] The percentage of area resorbed was calculated using the NIS-Elements BR. 3.1 software.

[12] = tested on: GLI1-knocked down MDA-MB-435 cells; assay: Migration, invasion and motility of GLI1-knocked down cells with OPN add-back; type: cell-based, human
Experimental: Motility Assay—These experiments were performed as previously described (Shevde, L. A., et al. (2006) Clin. Exp. Metastasis 23, 123-133). Images were acquired at T0, the reading at the initial time, and at T10 (10 h later). The experiment was conducted in duplicate and cell motility was calculated as (T0−T10)/T0, which represents the rate of movement over a 10-h period. For OPN add-back experiments the cells were pretreated for 12 h with 100 ng/ml human OPN (recombinant R & D Systems) and the assay conducted in the presence of OPN. Each experimental group was assessed in duplicate and data were recorded in three fields per well. Thus, six data points were recorded and analyzed per experimental group.
Invasion and Migration Assays—These experiments were performed as previously outlined (18) using a modified Boyden chamber assay. OPN add-back experiments for migration and invasion were conducted as described above with an additional step of pre-treating the cells for 24 h with rOPN. OPN was added to the upper and lower chambers (100 ng/ml) to ensure the OPN was present during the entire duration of the experiment. Each experimental group was assessed as three independent replicates.

CC[C@H](C)[C@@H]1NC(=O)CNC(=O)[C@@H]2Cc3c([nH]c4cc(O)ccc34)[S+]([O-])C[C@@H](NC(=O)CNC1=O)C(=O)N[C@@H](CC(N)=O)C(=O)N1C[C@H](O)C[C@H]1C(=O)N[C@@H]([C@@H](C)[C@@H](O)CO)C(=O)N2 (stereo in doubt) [α-amanitin]
ERCC1 up-regulation after cisplatin exposure [1]: blunted ERCC1 up-regulation

CCCC[C@@H](C=O)NC(=O)[C@H](CC(C)C)NC(=O)[C@H](CC(C)C)NC(C)=O [N-acetyl-leucyl-leucyl-norleucinal] (Ac-Leu-Leu-[Nle]-aldehyde)
ERCC1 up-regulation after cisplatin exposure [1]: blunted ERCC1 up-regulation

Cc1cc(C)c(/C=C2\C(=O)Nc3ccccc32)[nH]1 [SU5416]
ERCC1 up-regulation after cisplatin exposure [1]: blunted ERCC1 up-regulation

C[C@H]1CC[C@]2(NC1)O[C@H]1C[C@H]3[C@@H]4CC[C@H]5C[C@@H](O)CC[C@]5(C)[C@H]4CC[C@]3(C)[C@H]1[C@@H]2C [Tomatidine, tomatidine]
promoter activity of OPN [2]: no effect

Cc1c2oc3c(C)ccc(C(=O)N[C@@H]4C(=O)N[C@H](C(C)C)C(=O)N5CCC[C@H]5C(=O)N(C)CC(=O)N(C)[C@@H](C(C)C)C(=O)O[C@@H]4C)c3nc-2c(C(=O)N[C@@H]2C(=O)N[C@H](C(C)C)C(=O)N3CCC[C@H]3C(=O)N(C)CC(=O)N(C)[C@@H](C(C)C)C(=O)O[C@@H]2C)c(N)c1=O [actinomycin D] (I: T[dV]P[Sar][NMeV] / II: T[dV]P[Sar][NMeV]; ester I:1-I:C, II:1-II:C; linker I:N-II:N via Actinocin(9to1))
ERCC1 up-regulation after cisplatin exposure [1]: blunted ERCC1 up-regulation

[Cr] [chromium]
ERCC1 up-regulation after cisplatin exposure [1]: blunted ERCC1 up-regulation

N.N.[Cl][Pt][Cl] [cisplatin]
expression levels of ERCC1, XPD, and XRCC1 proteins, increase [3]: 5 fold
c-jun protein expression [4]: increased substantial between 0-6 hr
IC50 ([5]; cells transfected with 0.07 μg/well anti-Gli1 shRNA construct, cisplatin at 24 hr post-transfection): 8 µM
IC50 ([5]; control cells): 28 µM
expected increase in ERCC1 mRNA levels ([6]; cells treated with cisplatin only): 6 fold
ERCC1 mRNA half-life ([6]; cisplatin-treated cells (14 hr in untreated cells)): 24 h
ERCC1, XPD, or XRCC1 regulation [6]: up-regulated
IC50 [7]: ~40 µM
phosphorylation of c-jun protein, peak over baseline ([8]; 3-5 hr after cisplatin treatment): 15 fold
time of peak c-jun (Ser 63/73) protein levels ([8]; after cisplatin exposure): 3 to 5 h

C[C@@H]1C[C@@H]([C@H](O)CC2CC(=O)NC(=O)C2)C(=O)[C@@H](C)C1 [cycloheximide]
ERCC1 up-regulation after cisplatin exposure [1]: blunted ERCC1 up-regulation

COc1cccc2c1C(=O)c1c(O)c3c(c(O)c1C2=O)C[C@@](O)(C(=O)CO)C[C@@H]3O[C@H]1C[C@H](N)[C@H](O)[C@H](C)O1 [doxorubicin]
sensitivity to drug (viability, MTS assay) [9]: increased sensitivity

CO[C@H]1[C@@H](OC)C[C@H](C)[C@@H](OC)C2=CC(=O)C=C(NC(=O)/C(C)=C/C=C\[C@H](OC)[C@@H](OC(N)=O)/C(C)=C/[C@@H]1C)C2=O [herbimycin A]
ERCC1 up-regulation after cisplatin exposure [1]: blunted ERCC1 up-regulation

CC(=O)N[C@@H](CSC(=O)[C@]1([C@@H](O)C(C)C)NC(=O)[C@H](C)[C@@H]1O)C(=O)O [lactacystin]
ERCC1 up-regulation after cisplatin exposure [1]: blunted ERCC1 up-regulation

CCCCCCCCCCCCCC(=O)O[C@@H]1[C@@H](C)[C@@]2(O)[C@@H](C=C(CO)C[C@]3(O)C(=O)C(C)=C[C@@H]23)[C@@H]2C(C)(C)[C@]12OC(C)=O [phorbol ester]
ERCC1, XPD, or XRCC1 regulation [6]: up-regulated

[Pt] [platinum]
ERCC1 up-regulation after cisplatin exposure [1]: blunted ERCC1 up-regulation

CC(=O)O[C@H]1C(=O)[C@@]2(C)[C@H]([C@H](OC(=O)c3ccccc3)[C@]3(O)C[C@H](OC(=O)[C@H](O)[C@@H](NC(=O)c4ccccc4)c4ccccc4)C(C)=C1C3(C)C)[C@]1(OC(C)=O)CO[C@@H]1C[C@@H]2O [taxol]
sensitivity to drug (viability, MTS assay) [9]: increased sensitivity

OPN: recombinant human osteopontin (R & D Systems)
numbers of multinucleate TRAP-positive cells [10]: stimulate osteoclast differentiation; also recorded: significantly (* indicates p<0.005) increases
resorption activity of differentiated osteoclasts [11]: significantly (* indicates p<0.001) increases the resorption activity
cell motility (wound healing assay) ([12]; KO1 and KO4 cells in presence of recombinant OPN): restored
cell invasion through Matrigel ([12]; KO1 and KO4 cells, OPN 100 ng/ml vs untreated): significantly larger numbers
cell migration ([12]; KO1 and KO4 cells, OPN 100 ng/ml vs untreated, modified Boyden chamber): significantly larger numbers

B1: interleukin 1-α (protein, UniProt P01583 113-271, looked up)
Interleukin-1 alpha: SAPFSFLSNVKYNFMRIIKYEFILNDALNQSIIRANDQYLTAAALHNLDEAVKFDMGAYKSSKDDAKITVILRISKTQLYVTAQDEDQPVLLKEMPEIPKTITGSETNLLFFWETHGTKNYFTSVAHPNLFIATKQDYWVCLAGGPPSITDFQILENQA
ERCC1 up-regulation after cisplatin exposure [1]: blunted ERCC1 up-regulation

Source: patent US9540647B2, “Methods and compositions for the treatment of cancer” (University of South Alabama, priority 2010, dated 2017)
